In ChEMBL document CHEMBL3507680, “University of Dundee, Gates Library screen for HepG2 cell viability” one finds cytotoxicity data, which are given here for 100 compounds.

A short description of the data set: Human HepG2 cell viability assay in 384 well format. Format: toxicity, cell-based. Set-up: dose 125 nL, time 70.5 hour; concentration not given beside the values. The note with it: HepG2 cells, read-out: Inhibition.
For the compound `Fc1ccc(-c2nnc(CN3CCCC(Cn4cncn4)C3)o2)cc1` (stereo not given), the cytotoxicity at 70.5 h is -5.49%.
The result for `CCc1ccc2nc(-c3cnn(C)c3)cc(C(=O)N3CCCC3)c2c1` reads -5.34%; that for `CC(C)c1nc(C2CCCN(C(=O)c3ccc4nccn4c3)C2)no1` (stereo not given), -3.59%; that for `Cc1noc(CN(CCO)Cc2cc(Br)ccc2F)n1`, -1.67%.
The result for `CCOc1ccc(S(=O)(=O)N(C)Cc2cnn(CC)c2)cc1` reads -2.15%; that for `CC[C@H]1CN2CC[C@H]1C[C@@H]2CNC(=O)Nc1ccccc1`, -2.2%; that for `CCc1cc(N2CCN3CCCCC3C2)n2nccc2n1` (stereo not given), -8.87%.
The result for `Cc1nc(C(=O)N2CCC(Nc3cccnn3)CC2)cs1` reads 28.6%.
On to `COCc1nc(C(=O)N2CCCCC2Cn2cccn2)cs1` (stereo not given), for which the cytotoxicity at 70.5 h was -7.2%.
The result for `COc1ccc(CNC(=O)C2(C#N)CCCC2)cc1` reads 12.6%; that for `FC1(F)CCN(Cc2cccnc2)CC12CCN(c1cnccn1)C2` (stereo not given), -12.8%.
The result for `CC(C)Nc1ccnc(N2Cc3cnc(C(C)(C)C)nc3C2)n1` reads 17.3%; that for `c1csc(CN2CCCC3(COCCN(c4cnccn4)C3)C2)c1` (stereo not given), -6.31%; that for `Cc1nc(C)n(CC2CCCCN2Cc2nnc(-c3ccco3)o2)n1` (stereo not given), -6.54%.
The result for `Cn1cc(CN2CCc3c(nnn3C)C2COCc2ccccc2)cn1` (stereo not given) reads 32.3%.
With `CC(NC(=O)NCc1cc[nH]n1)c1ccc2c(c1)CCC(=O)N2` (stereo not given), the cytotoxicity at 70.5 h was -19.8%.
The result for `Cc1nn(C)cc1S(=O)(=O)NC1(CN2CCOCC2)CCCCC1` reads -3.14%.
As for `CNc1nc(N2CCN(CC=C(C)C)C(CCO)C2)nc2c1CCC2` (stereo not given), the cytotoxicity at 70.5 h was found to be 6.77%.
The result for `O=S1(=O)c2ccccc2C2(CCN(Cc3cccnc3)C2)N1CC1CC1` (stereo not given) reads -11.1%; that for `CCCc1noc(C2CCCCN2C(=O)C2CCCC2)n1` (stereo not given), 32.2%; that for `COCCN1CCC(CNC(=O)C2(c3cc(C)cc(C)c3)CCC2)C1` (stereo not given), -5.65%.
As to `CN(CCCOc1ccc(F)cc1)Cc1nc2c(cnn2C)c(=O)[nH]1`, the cytotoxicity at 70.5 h came out at 4.27%.
The result for `CCCc1ncc(CN(CCOC)Cc2cccs2)cn1` reads -1.12%.
As to `OC1(CNc2ccc(Br)cn2)CCSCC1`, the cytotoxicity at 70.5 h was 15.9%.
The result for `Cc1cc(CN2CCC(N(C)Cc3noc(C4CC4)n3)C2)on1` (stereo not given) reads 19.5%; that for `O=C(NC1CCCC1)N1C[C@H]2CN(c3ccncc3)C[C@@]2(C(=O)O)C1`, 14.8%; that for `CCOCCCNC(=O)c1nc2c(s1)CCCN2c1ccc(C)nn1`, -7.8%.
The result for `CCNc1ncc(C(=O)NC2CCc3ccccc3C2)cn1` (stereo not given) reads 54.4%; that for `Cc1nn(C)cc1-c1nn2c(C(F)(F)F)nnc2s1`, -9.41%.
The result for `CNS(=O)(=O)c1cccc(C(C)NCc2ccsc2)c1` (stereo not given) reads -0.542%; that for `Cc1noc(C(C)C)c1C(=O)NCc1ccc2c(c1)OCCO2`, -5.36%; that for `CN1CCOC(CNCc2ccc(OCc3ccccn3)cc2)C1` (stereo not given), -6.69%.
For the compound `Cc1cc(C(F)(F)F)cc(=O)n1Cc1nc(C(C)C)no1`, the cytotoxicity at 70.5 h was -14.9%.
The result for `OC1CCCN(CCNc2ncc(Cl)cc2F)C1` (stereo not given) reads 16.2%.
Regarding `Cc1cc(NCCCOC(C)C)c2nncn2n1`, the cytotoxicity at 70.5 h is 7.73%.
The result for `COc1cccc(-n2nnc(C(=O)N3CCCC(C)C3)c2C)c1` (stereo not given) reads -10.2%.
In the case of `CS(=O)(=O)NCC1CCCN(C(=O)c2cc3ccccc3o2)C1` (stereo not given), the cytotoxicity at 70.5 h was -3.7%.
The result for `CC1=Nc2c(c(=O)[nH]n2C(C)C)C(c2ccc3c(c2)n(C)c(=O)n3C)S1` (stereo not given) reads -9%; that for `Cc1cccc(C(=O)N2CCN(CCC(C)C)CC2)n1`, -11.4%; that for `O=C(Cc1ccccn1)N1CCC2(CCCN(CC3CCOCC3)C2)C1` (stereo not given), -0.432%.
On to `CC(=O)Nc1cc(C(=O)N2CCOCC2c2ccc(C)o2)ccc1F` (stereo not given), for which the cytotoxicity at 70.5 h is -6.36%.
The result for `COc1ccc(OC2CCN(C(=O)c3ccc(C)[nH]c3=O)CC2)cc1` reads -5.37%; that for `O=C(c1ccccc1O)N1CCN(C(=O)C2CCC2)CC1`, 16.4%.
The result for `Cc1cccc(-c2nnn3c2COC(CNCc2nccs2)C3)c1` (stereo not given) reads -3.21%; that for `CCCn1ccnc1CN1CCCC(O)(CN(C)C)CC1` (stereo not given), -3.55%; that for `CCn1cc(-c2cc(C(F)F)n3nc(CC(=O)O)nc3n2)cn1`, 0.375%.
The result for `CC(C)CC(O)C1CCN(C(=O)c2coc(CN3CCOCC3)c2)CC1` (stereo not given) reads -7.32%; that for `O=C(NC1CCN(C2CC2)CC1)N1CCN(c2cnccn2)CC1`, 3.56%.
For the compound `Cc1ccc(CNC2CCN(CCc3ccncc3)CC2)s1`, the cytotoxicity at 70.5 h is 1.18%.
With `CO[C@H]1CCN(S(=O)(=O)c2cn(C)cn2)[C@H]1Cc1ccncc1`, the cytotoxicity at 70.5 h is -0.309%.
The result for `CCCS(=O)(=O)c1ncc(CN2CCC(C)CC2)n1CC1CCCO1` (stereo not given) reads -2.16%; that for `O=C(c1ccncc1)N1CC[C@@H]2[C@@H](CC1)OCCN2c1cccnc1`, -7.36%; that for `CCc1cc(C(F)(F)F)c2c(C3CCN(C(=O)COC)CC3)noc2n1`, -6.22%.
The result for `CS(=O)(=O)N[C@@H]1CN(Cc2ccccc2)C[C@@H]2CCCO[C@@H]21` reads -4.64%; that for `COCCc1noc(Cn2c(=O)[nH]c3ccccc32)n1`, -10.2%; that for `CC(Nc1ccn(CCS(C)(=O)=O)n1)c1ccc(C#N)cc1` (stereo not given), -1.96%.
With `CCc1c(C(=O)Nc2ccc(F)c(C(=O)NC)c2)cnn1CC(C)C`, the cytotoxicity at 70.5 h was 0.0762%.
The result for `CCCc1nc(C(C)(C)NC(=O)C2CC(=O)N(CCOC)C2)no1` (stereo not given) reads -10.7%; that for `CC(C)c1nc(C2CCCN(C(=O)CS(=O)(=O)C(C)C)C2)no1` (stereo not given), -7.77%.
The result for `O=C(CN(CC(O)c1ccc(F)cc1)C1CC1)NCc1cccs1` (stereo not given) reads -114%.
For `COc1cccnc1NC(=O)c1ccc(COCC(F)(F)F)cc1`, the cytotoxicity at 70.5 h was -8.83%.
The result for `COc1cccc(-c2noc(CN3CCOCC3C)n2)c1` (stereo not given) reads -2.13%; that for `CC(=O)c1cc(CN2CCCC23CCN(c2ccccn2)CC3)cs1`, -19.2%; that for `COc1ccc2c(ccn2CCC(=O)Nc2nc[nH]n2)c1`, 0.0223%.
The result for `CCN1C[C@H]2N(c3ncccn3)CCC[C@@]2(C(=O)NCC2CC2)C1` reads 0.391%; that for `O=C1CCNc2ccccc2CN1Cc1ccco1`, -6.23%.
The result for `NC(=O)CC1c2cccnc2C(=O)N1Cc1ccccc1` (stereo not given) reads -6.46%; that for `COc1ccc(CNC(C)Cn2cccn2)cc1OC` (stereo not given), 1.53%; that for `CCC(=O)N1CC[C@H]2C(=O)N(Cc3ccc(OC)cc3)CCO[C@H]2C1`, 34.1%.
Regarding `O=C(c1cccc2c1OCO2)N1CCC(N2CCCC2)CC1`, the cytotoxicity at 70.5 h was -1.7%.
The result for `Cc1nc(C(=O)N(C)[C@@H]2CCC[C@@H](Oc3ccccc3)[C@@H]2O)co1` reads 6.12%.
The result for `O=C1Nc2ccccc2CN(C/C=C/c2ccccc2)C12CCNC2` (stereo not given) reads 2.42%; that for `Cc1cc(NC(=O)CCN2CCCC2Cn2cncn2)no1` (stereo not given), 1.41%.
The result for `OCC1(O)CCCN(Cc2noc(-c3ccccc3)n2)C1` (stereo not given) reads -10.2%; that for `O=c1[nH]nc(CCCN2CCOCC2)n1Cc1cccc(F)c1`, -2.64%.
For `Cc1cc(-c2cnc(C(C)C)nc2CN(C)C(=O)c2ccccn2)on1`, the cytotoxicity at 70.5 h was -6.43%.
The result for `CC1=Nc2c(c(=O)[nH]n2C(C)C)C(c2ccc(F)c(F)c2)S1` (stereo not given) reads -4.57%; that for `CC(OCCCNC(=O)c1cccnc1O)c1ccccc1` (stereo not given), -1.73%; that for `N#CC(NC(=O)CCCOc1cccnc1)c1ccc(F)cc1F` (stereo not given), 6.82%.
The result for `O=C(CN1CCCC1c1noc(C2CC2)n1)NCCc1ccsc1` (stereo not given) reads 4.35%; that for `CCN(CC)C(=O)c1nnn(Cc2ccccc2)c1OC`, 0.599%; that for `Cc1nnc(CN(Cc2cccc(Br)c2)C2CC2)o1`, -8.25%.
Consider `Cc1ccc2c(c1)CCC2NCc1c(C)nn(CCO)c1C` (stereo not given), for which the cytotoxicity at 70.5 h was -6.83%.
As for `Cc1nc(NC2CC(C)(C)NC(C)(C)C2)c2c(n1)c(C)nn2C`, the cytotoxicity at 70.5 h is -18.4%.
The result for `CN(C)c1ccc(C(=O)Nc2ccn(CCc3ccncc3)n2)cn1` reads 0.589%; that for `Cc1cccc(-c2noc([C@@H]3C[C@@H](O)CN3CC3CCCCC3)n2)c1`, -1.98%.
Regarding `O=C(Cc1ccsc1)N1CCC(n2nc(-c3ccco3)ccc2=O)CC1`, the cytotoxicity at 70.5 h stood at 1.25%.
The result for `CCOC1COC2(CCN(CC3CCOCC3)CC2)C1` (stereo not given) reads 14.7%; that for `O=c1n(CC2CCCO2)nc(CC2CCNCC2)n1-c1ccccc1` (stereo not given), -11%; that for `Cc1cc(C(=O)NCCc2cn3nc(C)sc3n2)c(C)o1`, -5.61%.
The result for `COc1ccc(NC(=O)Nc2cnc(N3CCN(C)CC3)nc2)cc1Cl` reads -0.129%; that for `CC(C)c1nc(C2CCCN2Cc2ccon2)no1` (stereo not given), -10.9%; that for `CCOC(=O)CNC(=O)N1CCN(c2ncccn2)CC1`, -4.84%.
The result for `Cc1ccc(C(C(=O)O)N2CCCN(Cc3ccccn3)CC2)c(F)c1` (stereo not given) reads -4.69%; that for `Cc1cc(NC(=O)NCC2(O)CCCC2)ccn1`, -14%; that for `CC(C)C(=O)N(C)Cc1nc(N2CCCC2)ncc1-c1ccncc1`, -6.45%.
As for `CN1CC2(CCCN(c3nc(N)nc4c3CCCC4)C2)OC1=O` (stereo not given), the cytotoxicity at 70.5 h is -10.1%.
As to `O=C1COC2(CCN(Cc3ccco3)CC2)CN1`, the cytotoxicity at 70.5 h is -7.36%.
The result for `COc1ccc(Cl)cc1NCC(=O)NCc1cccnc1OC` reads 17.6%; that for `Cn1cc(C(=O)Nc2cc(F)ccc2OCC2CCCO2)ccc1=O` (stereo not given), -7.6%.
